Results as given in article PMC11079024, “Identification of a family of species-selective complex I inhibitors as potential anthelmintics” (Nature Communications, 2024).
Where “and” joins values, the source holds several entries; their conditions need not be identical. Equal entries are not always repeated. Where two headings read alike, the source gives them in different places.

What was measured:
[1] = tested on: C. elegans; assay: C. elegans chemical screens of RIKEN NPD libraries at 50 μM (hit identification in KCN survival and development/viability assays); format: cell-based, Caenorhabditis elegans; conditions: screened at 50 μM in triplicate; hit = modified z-score < −3; KCN = KCN survival assay, Dev. & Viability = development/viability assay
[2] = tested on: HEK293 cells; conditions: human, 2 days, 6.3 µM
[3] = in vitro; conditions: human
[4] = tested on: L1 wild-type C. elegans; assay: whole plant or invertebrate; conditions: Caenorhabditis elegans, 15 h
[5] = tested on: L1 wild-type C. elegans; assay: 15-hour motility assay with drug alone (no KCN); format: cell-based, Caenorhabditis elegans; conditions: without KCN, 15-hour; for Value relative to DMSO control, drug alone (without KCN), Mean: mean of replicates; for Value relative to DMSO control, drug alone (without KCN): single replicates
[6] = tested on: L1 wild-type C. elegans; conditions: for KCN survival assay value relative to DMSO control, Mean / KCN survival assay value relative to DMSO control: drug + KCN, 15-hour; for KCN survival assay value relative to DMSO control, Mean: mean of replicates; for KCN survival assay value relative to DMSO control: single replicates
[7] = tested on: adult H. polygyrus; assay: microbe, parasite or virus in culture; format: cell-based, Heligmosomoides polygyrus
Method: To investigate the impact of the eleven benzimidazole derivatives under anaerobic conditions, an anaerobic chamber with an integrated incubator (Coy Laboratory Products, USA) was used. The same procedure was followed as described for the aerobic drug screening in adult H. polygyrus, but the incubation took place within the anaerobic chamber (37 °C, 85% N2, 10% CO2, 5% H2). Benzimidazole derivatives were tested at a concentration of 10 µM. For scoring, the plates had to be removed from the anaerobic chamber. The whole experiment was performed two times i.e., two independent biological replicates.
The activities of eleven benzimidazole derivatives were tested against adult H. polygyrus viability in vitro under aerobic (+, white boxplots) and anaerobic (–, coloured boxplots) conditions (see Methods). After 24-hour chemical treatment, worm viability was manually scored by an examiner using a scale from 0 (dead) to 3 (motile); DMSO was used as a negative control in both aerobic and anaerobic conditions; levamisole was used as a positive control in anaerobic conditions. The percentage of affected worms (i.e., worms with a score equal to or lower than 1.5) in each biological replicate is shown; data are from two biological replicates. Within each boxplot, black horizontal lines denote group medians, boxes span from the 25th to the 75th percentile of each group’s distribution, and whiskers extend to the maximum and minimum values. […]

[8] = tested on: H. polygyrus; conditions: cited from earlier work
[9] = read-out: C. elegans KCN Survival Assay LC50

With Fc1ccc(C(c2ccc(F)cc2)N2CCN(C/C=C/c3ccccc3)CC2)cc1 [Flunarizine] the “Hit Type” value [1] was “KCN”, the HEK293 viability [2] was 1.000 and the CC50 at 2 days ([3]; HEK293 Cell Viability Assay LC50) was 30.2 µM. For the same compound, the viability ([3]; HEK293 viability) was 92.6%, the viability at 2 days, 0.4 µM ([3]; HEK293 viability) was 88.1% and the viability at 2 days, 0.8 µM ([3]; HEK293 viability) was 81.5%. The viability at 2 days, 6.3 µM ([3]; HEK293 viability) was 100%, the viability at 2 days, 12.5 µM ([3]; HEK293 viability) was 99.4% and the viability at 2 days, 50 µM ([3]; HEK293 viability) was 17.1%. It also gave an LC50 [4, 9] of 22 µM.
In the case of O=C(Nc1ccc([N+](=O)[O-])cc1Cl)c1cc(Cl)ccc1O [Niclosamide], the “Hit Type” value [1] is reported as “KCN”, the “Value relative to DMSO control, drug alone (without KCN), Mean” value ([5]; 0.025 µM) is reported as 1.071 and the “Value relative to DMSO control, drug alone (without KCN)” value ([5]; 0.025 µM) is reported as 0.995 and 1.216 and 1.349 and 0.779 and 1.019. The “Value relative to DMSO control, drug alone (without KCN), Mean” value ([5]; 0.05 µM) was 1.075, the “Value relative to DMSO control, drug alone (without KCN)” value ([5]; 0.05 µM) was 1.004 and 1.000 and 1.245 and 1.142 and 0.983 and the “Value relative to DMSO control, drug alone (without KCN), Mean” value ([5]; 0.1 µM) was 0.944. For the same compound, the “Value relative to DMSO control, drug alone (without KCN)” value ([5]; 0.1 µM) was 0.881 and 0.705 and 1.000 and 1.091 and 1.040, the “Value relative to DMSO control, drug alone (without KCN), Mean” value ([5]; 0.2 µM) was 0.857 and the “Value relative to DMSO control, drug alone (without KCN)” value ([5]; 0.2 µM) was 0.621 and 0.780 and 0.965 and 0.960 and 0.957. For the same compound, the “Value relative to DMSO control, drug alone (without KCN), Mean” value ([5]; 0.4 µM) was 0.828, the “Value relative to DMSO control, drug alone (without KCN)” value ([5]; 0.4 µM) was 0.811 and 0.792 and 0.740 and 0.844 and 0.957 and the “Value relative to DMSO control, drug alone (without KCN), Mean” value ([5]; 0.8 µM) was 0.938. For the same compound, the “Value relative to DMSO control, drug alone (without KCN)” value ([5]; 0.8 µM) was 0.966 and 0.718 and 0.993 and 1.008 and 1.003, the “Value relative to DMSO control, drug alone (without KCN), Mean” value ([5]; 3.1 µM) was 0.892 and the “Value relative to DMSO control, drug alone (without KCN)” value ([5]; 3.1 µM) was 0.775 and 0.855 and 0.898 and 1.068 and 0.863. For the same compound, the “Value relative to DMSO control, drug alone (without KCN), Mean” value ([5]; 6.3 µM) was 0.921, the “Value relative to DMSO control, drug alone (without KCN)” value ([5]; 6.3 µM) was 0.820 and 1.003 and 0.834 and 0.940 and 1.007 and the “Value relative to DMSO control, drug alone (without KCN), Mean” value ([5]; 12.5 µM) was 1.018. For the same compound, the “Value relative to DMSO control, drug alone (without KCN)” value ([5]; 12.5 µM) was 0.937 and 0.884 and 0.971 and 1.234 and 1.065, the “Value relative to DMSO control, drug alone (without KCN), Mean” value ([5]; 25 µM) was 0.884 and the “Value relative to DMSO control, drug alone (without KCN)” value ([5]; 25 µM) was 0.851 and 0.847 and 1.014 and 1.053 and 0.655. For the same compound, the “C. elegans L1 relative motility, 3-hour post 200 µM KCN dilution” value (“C. elegans L1 relative motility” for short) ([6]; dose 0.05 µM, Mean of replicates) was 1.030, the “C. elegans L1 relative motility” value ([6]; dose 0.05 µM, individual replicate (Rep)) was 1.077 and 0.962 and 1.145 and the “C. elegans L1 relative motility” value ([6]; dose 0.1 µM, Mean of replicates) was 0.412. The “C. elegans L1 relative motility” value ([6]; dose 0.1 µM, individual replicate (Rep)) was 0.940 and 1.178 and 0.971, the “C. elegans L1 relative motility” value ([6]; dose 0.2 µM, individual replicate (Rep)) was 0.475 and 0.408 and 0.354 and the “C. elegans L1 relative motility” value ([6]; dose 0.8 µM, Mean of replicates) was 0.011. The “C. elegans L1 relative motility” value ([6]; dose 3.1 µM, Mean of replicates) was 0.006, the “C. elegans L1 relative motility” value ([6]; dose 3.1 µM, individual replicate (Rep)) was 0.000 and the “C. elegans L1 relative motility” value ([6]; dose 6.3 µM, Mean of replicates) was 0.039. For the same compound, the “C. elegans L1 relative motility” value ([6]; dose 12.5 µM, Mean of replicates) was 0.0056, the “C. elegans L1 relative motility” value ([6]; dose 25 µM, Mean of replicates) was 0.020 and the “C. elegans L1 relative motility” value ([6]; dose […], Mean of replicates) was 0.000. The “KCN survival assay value relative to DMSO control, Mean” value ([6]; 0.025 µM) was 1.061, the “KCN survival assay value relative to DMSO control” value ([6]; 0.025 µM) was 0.962 and 1.145 and 1.077 and the “KCN survival assay value relative to DMSO control, Mean” value ([6]; 0.05 µM) was 1.030. The “KCN survival assay value relative to DMSO control” value ([6]; 0.05 µM) was 1.178 and 0.971 and 0.940, the “KCN survival assay value relative to DMSO control, Mean” value ([6]; 0.1 µM) was 0.412 and the “KCN survival assay value relative to DMSO control” value ([6]; 0.1 µM) was 0.408 and 0.354 and 0.475. For the same compound, the “KCN survival assay value relative to DMSO control, Mean” value ([6]; 0.2 µM) was 0.114, the “KCN survival assay value relative to DMSO control, Mean” value ([6]; 0.4 µM) was 0.0075 and the “KCN survival assay value relative to DMSO control, Mean” value ([6]; 0.8 µM) was 0.011. The “KCN survival assay value relative to DMSO control, Mean” value ([6]; 3.1 µM) was 0.006, the “KCN survival assay value relative to DMSO control, Mean” value ([6]; 6.3 µM) was 0.039 and the “KCN survival assay value relative to DMSO control, Mean” value ([6]; 12.5 µM) was 0.0056. The “KCN survival assay value relative to DMSO control, Mean” value ([6]; 25 µM) was 0.020, the LC50 [4, 9] was 0.095 µM and the LC50 ([4]; read-out: C. elegans KCN survival assay LC50) was 0.0948 µM.
For c1ccc([C@H]2CN3CCSC3=N2)cc1 [levamisole, reference compound], the “# of Worms Affected” value [7] is listed as 12, the killing at 10 µM ([7]; Heligmosomoides polygyrus, 24 h, read-out: Percent Worms Affected) is listed as 100% and the “reduction in H. polygyrus worm burden” value ([8]; mouse, in vivo, 1.25 mg/kg) is listed as 62%.
For CO/N=C1\C[C@]2(C[C@@H]3C[C@@H](C/C=C(\C)C[C@@H](C)/C=C/C=C4\CO[C@@H]5[C@H](O)C(C)=C[C@@H](C(=O)O3)[C@]45O)O2)O[C@H](/C(C)=C/C(C)C)[C@H]1C [moxidectin], the “reduction in H. polygyrus worm burden” value ([8]; single dose 1 mg/kg, mice) is given as 99%.
